We go through 17 compounds from patent publication US8163753B2, “2,3-dihydro-6-nitroimidazo (2,1-b) oxazole compounds for the treatment of tuberculosis” (priority 2003, dated 2012).

Converted amounts (≈) assume the structure as drawn.

One data set concerns M. fortuitum. Particulars: used at 250 μg/ml or less; cited from earlier work.
Another data set has as its system M. intracellulare. The note with it: used at 250 μg/ml or less; cited from earlier work.
Data set [1] deals with Mycobacterium tuberculosis (H37Rv strain). Particulars: in vitro, literature report; cited from earlier work.
The next data set relates to M. avium. The note with it: used at 250 μg/ml or less; cited from earlier work.
Another data set has as its system M. tuberculosis Kurono. In words: Antibacterial test, agar-plate dilution method (minimum inhibitory concentration), Test Example 2. The data set is classed as cell-based. The note with it: 7H11 agar medium, 37° C. for 14 days; for MIC: Mycobacterium tuberculosis, 336 h.

A word on the melting point: it is the temperature, or range, at which the solid turns liquid. `C[C@]1(COc2ccc(N3CCC(COC4CCCCO4)CC3)cc2)Cn2cc([N+](=O)[O-])nc2O1` (stereo partly drawn): the melting point is 217.6 to 218.6 °C.
Regarding `C[C@]1(COc2ccc(N3CCC(COc4ccc(-c5ccccc5)cc4)CC3)cc2)Cn2cc([N+](=O)[O-])nc2O1`, the melting point is 245 °C (dec.).
Still for that read-out and setting: to `CN(Cc1ccc(N(C)CC=Cc2ccc(C(F)(F)F)cc2)cc1)C[C@@]1(C)Cn2cc([N+](=O)[O-])nc2O1` belongs 153.5 to 154.5 °C.
On the same count and under the same terms, to `C[C@]1(COc2ccc3nc(Cl)ccc3c2)Cn2cc([N+](=O)[O-])nc2O1` belongs 182.2 to 184.7 °C.
The compound `C[C@]1(COc2ccc(N3CCC(OCc4ccc(OC(F)(F)F)cc4)CC3)cc2)Cn2cc([N+](=O)[O-])nc2O1` yielded a melting point of 214.3 to 217.7 °C.
The same measure, in the same setting: next, `CN(Cc1cc(C(F)(F)F)cc(C(F)(F)F)c1)C1CCN(c2ccc(OC[C@@]3(C)Cn4cc([N+](=O)[O-])nc4O3)cc2)CC1`: 193.8 to 195.3 °C; `C[C@]1(COc2ccc(N3CCN(CCOc4ccc(OC(F)(F)F)cc4)CC3)cc2)Cn2cc([N+](=O)[O-])nc2O1`: 194.8 to 195.6 °C; `C[C@]1(COc2ccc(-c3ccc(N4CCN(Cc5ccc(Cl)cc5)CC4)cc3)cc2)Cn2cc([N+](=O)[O-])nc2O1`: 247.8 to 248.5 °C (dec.).
Still for that read-out and setting: next, `C[C@]1(COc2ccc(N3CCC(CCOCc4ccc(Cl)cc4)CC3)cc2)Cn2cc([N+](=O)[O-])nc2O1`: 197.6 to 198.2 °C; `C[C@]1(COc2ccc(N3CCC(N4CCN(c5ccc(Cl)cc5)CC4)CC3)cc2)Cn2cc([N+](=O)[O-])nc2O1`: 247 to 249 °C.
Same read-out and setting: next, `CC1(COc2ccc(N3CCC(Cc4ccc(Cl)c(Cl)c4)CC3)cc2)Cn2cc([N+](=O)[O-])nc2O1` (stereo not drawn): 191.4 to 192.1 °C.
In turn, `CC1(COc2ccc(N3CCC(COCc4ccc(OC(F)(F)F)cc4)CC3)cc2)Cn2cc([N+](=O)[O-])nc2O1` (stereo not drawn) gave a melting point of 153.1 to 153.7 °C.
On the same count and under the same terms, next, `O=[N+]([O-])c1cn2c(n1)O[C@@H](COc1ccc(N3CCC(COCc4ccc(OC(F)(F)F)cc4)CC3)cc1)C2`: 140.4 to 141.7 °C.
For the compound `CCC1Cn2cc([N+](=O)[O-])nc2O1` (stereo not drawn) [CGI-17341], the “activity to M. fortuitum” value in the data set on M. fortuitum is “does not have the activity”. The “activity to M. intracellulare” value in the data set on M. intracellulare is given as “does not have the activity”. The “bactericidal action to Mycobacterium tuberculosis (H37Rv strain)” value in data set [1] was “has a bactericidal action”. In addition, in the data set with M. avium, the “activity to M. avium” value is “does not have the activity”.
Broadly, the MIC is the lowest concentration found to suppress growth. A low value points to greater potency. `C[C@]1(COc2ccc3nc(N4CCN(Cc5ccc(OC(F)(F)F)cc5)CC4)sc3c2)Cn2cc([N+](=O)[O-])nc2O1` [Example 1, (R)-2-methyl-6-nitro-2-(2-(4-(4-trifluoromethoxybenzyl)-piperazine-1-yl)benzothiazole-6-yloxymethyl)-2,3-dihydroimidazo[2,1-b]oxazole] registered a melting point of 205.6 to 207.4 °C. This compound also came in with an MIC in the data set on M. tuberculosis Kurono of 0.2 µg/mL (≈ 0.339 µM).
For `C[C@]1(COc2ccc(N3CCC(CC=Cc4ccc(C(F)(F)F)cc4)CC3)cc2)Cn2cc([N+](=O)[O-])nc2O1` [Example 8, (R)-2-methyl-6-nitro-2-(4-(4-(3-(4-trifluoromethyphenyl)-2-propenyl)piperidine-1-yl)phenoxymethyl)-2,3-dihydroimidazo[2,1-b]oxazole], the “Minimum Inhibitory Concentration” value in the data set with M. tuberculosis Kurono was found to be 0.006 µg/mL.
Regarding `C[C@]1(COc2ccc(N3CCN(CCOc4ccc(OC(F)(F)F)cc4)CC3)cc2)Cn2cc([N+](=O)[O-])nc2O1` [Example 9, (R)-2-methyl-6-nitro-2-(4-(4-(2-(4-trifluoromethoxyphenoxy)ethyl)piperazine-1-yl)phenoxymethyl)-2,3-dihydroimidazo[2,1-b]oxazole], in the data set with M. tuberculosis Kurono, the MIC came out at 0.012 µg/mL (≈ 0.0213 µM).
